The values below come from paper PMC11405051, “HLA A*24:02–restricted T cell receptors cross-recognize bacterial and preproinsulin peptides in type 1 diabetes” (The Journal of Clinical Investigation, 2024).

For one assay, the system named is 4C6 T cell clone. Description: Peptide titration activation assay of 4C6 T cell clone, MIP-1β ELISA. Format: cell-based, human. As to conditions: duplicate conditions. In general terms: In an ELISA, binding on a coated surface is turned into a signal by an enzyme label.
For assay [1], the system named is tetramer-enriched T cell lines from HLA A*24+ healthy donors. In words: Tetramer staining of tetramer-enriched T cell lines from HLA A*24+ healthy donors. Format: cell-based, human.
Method: The 4C6 T-cell clone was rested overnight in R5 media, as above then incubated with antigen presenting
cells, with 3 x104 4C6 T-cells and 6 x10^4 antigen presenting cells per well of a 96U well plate. The cells were
incubated overnight in R5 media at 37°C and 5% CO2, with all conditions performed in triplicate.
Supernatants were harvested and MIP-1β or TNF production measured by enzyme-linked immunosorbent
assay (ELISA, R&D Systems, Bio-Techne, Minneapolis, MN, US). Experiment 1 used C1R cells +/- HLA
A*24:02 +/- IGF2BP2 (irrelevant control), gsiA or fes genes. Experiment 2 used THP-1 and A549 cells: WT
and + HLA A*A24:02 +/- gsiA or fes genes. PHA (10 μg/mL) as a positive control and exogenous Klebsiella
peptides at 10 μM for comparison were also included. MIP-1β or TNF values for 4C6 T-cells or antigen
presenting cells incubated alone were subtracted during analysis.
Where [2] appears, read: Supplementary Figure 5, 60 biased-sampling peptides and index, 4C6 overnight with C1R-HLA A24:02, MIP-1β ELISA.

Method for 4C6 T cell clone: 4C6 T-cells were rested overnight in R5 media (as for R10 but with 5% FBS) to reduce
spontaneous activation, followed by incubation in the presence of C1R-HLA A*24:02, with peptide mixtures
of defined length and random amino acid sequence (X8-14 in which X is any of the 20 proteogenic L-amino
acids, excluding cysteine) in R5 media overnight at 37°C and 5% CO2. MIP-1β production was measured by
enzyme-linked immunosorbent assay (ELISA, R&D Systems, Bio-Techne, Minneapolis, MN, US) as a proxy
for T cell activation as previously described (22). Peptide mixtures were synthesised at >40% purity
(Pepscan Presto, Lelystad, Netherlands) and stored at -80°C in DMSO at 40 mM. Mixtures were used in
assays at a concentration of 1 mM. Following conformation of the preference of 4C6 T-cells for 9-mer
peptides, nonamer PS-CPL screening was performed using libraries synthesised at >40% purity as
described previously (22, 23, 43). Libraries were stored at -80°C in DMSO at 20 mM. For assays, 6×104
C1R-HLA A*24:02 were pulsed with 100 μM of each CPL library mixture for 2 h at 37°C. Following this,
3×10^4 4C6 T cells were co-incubated with the pulsed C1R-HLA A*24:02 cells overnight at 37°C and 5% CO2.
Assay conditions were performed in duplicate. Supernatants were harvested the following morning and
assayed for the presence of MIP-1β, as above, by ELISA.
universe with bias toward good agonists.

Turning to “AHPPLFNVM [9-mer drawn by CPL-biased importance sampling]”, in the assay on 4C6 T cell clone (setting [2]), the EC50 (usually the concentration at which the effect is half-maximal) was above 10 µM. Regarding “ALMRLFSLF [9-mer drawn by CPL-biased importance sampling]”, the EC50 in the assay with 4C6 T cell clone (setting [2]) is above 10 µM.

As to “AYAAAAAAL [irrelevant HLA A*24:02 peptide used in control tetramers]”, the “% tetramer+” value in assay [1] (CMV […] tetramer-enriched line, donor 572D, single-staining) was determined as 0%; in assay [1] (CMV […] tetramer-enriched line, donor BB25, single-staining), 0.05%; in assay [1] (CMV […] tetramer-enriched line, donor BB31, single-staining), 0.05%; in assay [1] (CMV […] tetramer-enriched line, donor BB51, single-staining), 0.1%; in assay [1] (CMV […] tetramer-enriched line, donor BB52, single-staining), 0.04%; in assay [1] (CMV […] tetramer-enriched line, donor BB57, single-staining), 0.02%. Besides, the “% tetramer+” value in assay [1] (CMV […] tetramer-enriched line, donor BB64, single-staining) was determined as 0.3%; in assay [1] (Kleb SLPRLFPLL tetramer-enriched line, donor 572D, single-staining), 0%; in assay [1] (Kleb SLPRLFPLL tetramer-enriched line, donor BB25, single-staining) it was 0.03%; in assay [1] (Kleb SLPRLFPLL tetramer-enriched line, donor BB31, single-staining), 0.5%; in assay [1] (Kleb SLPRLFPLL tetramer-enriched line, donor BB51, single-staining), 0.1%; in assay [1] (Kleb SLPRLFPLL tetramer-enriched line, donor BB52, single-staining), 0%. For the same sequence, the “% tetramer+” value in assay [1] (Kleb SLPRLFPLL tetramer-enriched line, donor BB57, single-staining) was 0.06%; in assay [1] (Kleb SLPRLFPLL tetramer-enriched line, donor BB64, single-staining), 0.4%. The sequence “DHPPLFPMA [9-mer drawn by CPL-biased importance sampling]” yielded a half-maximal effective concentration (EC50) in the assay with 4C6 T cell clone (setting [2]) above 10 µM.

Take “DKPRLVPVI [9-mer drawn by CPL-biased importance sampling]”: the EC50 with 4C6 T cell clone (setting [2]) was above 10 µM. “DLQRLVSVI [9-mer drawn by CPL-biased importance sampling]” returned an EC50 in the assay with 4C6 T cell clone (setting [2]) above 10 µM. Same read-out and setting: for “DMMPLLPII [9-mer drawn by CPL-biased importance sampling]” the value was above 10 µM. For “DNPRLFGLT [9-mer drawn by CPL-biased importance sampling]”, the EC50 with 4C6 T cell clone (setting [2]) was above 10 µM. The same measure, in the same setting: as for “DYQRLVNLL [9-mer drawn by CPL-biased importance sampling]”, the figure is above 10 µM. “ELPPLMSVW [9-mer drawn by CPL-biased importance sampling]” yielded an EC50 in the assay with 4C6 T cell clone (setting [2]) above 10 µM. On the same count and under the same terms, as for “EMQPLFGMV [9-mer drawn by CPL-biased importance sampling]”, the figure is above 10 µM. Same read-out and setting: as for “ENMPLMPMI [9-mer drawn by CPL-biased importance sampling]”, the figure is above 10 µM; as for “EWQPLFSIA [9-mer drawn by CPL-biased importance sampling]”, above 10 µM; as for “EYMPLVGML [9-mer drawn by CPL-biased importance sampling]”, above 10 µM. As for “EYPPLLNIL [9-mer drawn by CPL-biased importance sampling]”, the EC50 with 4C6 T cell clone (setting [2]) was above 10 µM. On to “EYPPLVPIL [fungal peptide, Aspergillus niger, Unnamed protein product]”, for which the EC50 with 4C6 T cell clone (Supplementary Figure 6, top 20 fungal database peptides, 4C6 overnight with C1R HLA A*24:02, MIP-1β ELISA) was above 10 µM.

In the case of “HYMPLFGVT [9-mer drawn by CPL-biased importance sampling]”, the EC50 in the assay on 4C6 T cell clone (setting [2]) is above 10 µM.

Sequence “HYQPLVPVL [9-mer drawn by CPL-biased importance sampling]” registered an EC50 in the assay with 4C6 T cell clone (setting [2]) above 10 µM. On the same count and under the same terms, for “ILMPLMPMT [9-mer drawn by CPL-biased importance sampling]” the value was above 10 µM.

In the case of “IWPPLVPVT [9-mer drawn by CPL-biased importance sampling]”, in the assay with 4C6 T cell clone (setting [2]), the EC50 was above 10 µM.

Take “IWQPLAGVA [9-mer drawn by CPL-biased importance sampling]”: the EC50 with 4C6 T cell clone (setting [2]) is above 10 µM. With “KNLPLVPII [9-mer drawn by CPL-biased importance sampling]”, the EC50 in the assay on 4C6 T cell clone (setting [2]) was above 10 µM. Still for that read-out and setting: as for “KWLRLMPMM [9-mer drawn by CPL-biased importance sampling]”, the figure is above 10 µM. On the same count and under the same terms, for “LLMPLVGLW [9-mer drawn by CPL-biased importance sampling]” the value was above 10 µM. For the sequence “LMMPLAPMM [9-mer drawn by CPL-biased importance sampling]”, the EC50 in the assay on 4C6 T cell clone (setting [2]) was above 10 µM. Still for that read-out and setting: as for “LYQPLVGMV [9-mer drawn by CPL-biased importance sampling]”, the figure is above 10 µM; as for “NHPRLVGVI [9-mer drawn by CPL-biased importance sampling]”, above 10 µM. “NKLRLVNIM [9-mer drawn by CPL-biased importance sampling]” had a concentration for a half-maximal effect (EC50) in the assay with 4C6 T cell clone (setting [2]) above 10 µM.

In turn, “NLMRLMNLA [9-mer drawn by CPL-biased importance sampling]” yielded an EC50 with 4C6 T cell clone (setting [2]) above 10 µM. On the same count and under the same terms, for “NWQPLVSIW [9-mer drawn by CPL-biased importance sampling]” the value was above 10 µM. Same read-out and setting: as for “QHPPLASLI [9-mer drawn by CPL-biased importance sampling]”, the figure is above 10 µM; as for “QKLPLLGLL [9-mer drawn by CPL-biased importance sampling]”, above 10 µM. The same measure, in the same setting: for “QKQPLLPII [9-mer drawn by CPL-biased importance sampling]” the value was above 10 µM; for “QKQRLASIL [9-mer drawn by CPL-biased importance sampling]”, above 10 µM; for “QMLPLLPLF [9-mer drawn by CPL-biased importance sampling]”, above 10 µM.

In the assay with 4C6 T cell clone (setting [2]), “QMPPLVNIM [9-mer drawn by CPL-biased importance sampling]” had an EC50 above 10 µM. The same measure, in the same setting: for “QMQRLVNIV [9-mer drawn by CPL-biased importance sampling]” the value was above 10 µM; for “QWPRLVNVF [9-mer drawn by CPL-biased importance sampling]”, above 10 µM. For “QYLRLFNIT [9-mer drawn by CPL-biased importance sampling]”, the EC50 in the assay on 4C6 T cell clone (setting [2]) was above 10 µM. Same read-out and setting: for “RHMRLFGML [9-mer drawn by CPL-biased importance sampling]” the value was above 10 µM.

“RLLPLVSVI [9-mer drawn by CPL-biased importance sampling]” yielded an EC50 in the assay with 4C6 T cell clone (setting [2]) above 10 µM. Take “RLMPLVPVV [9-mer drawn by CPL-biased importance sampling]”: the EC50 in the assay with 4C6 T cell clone (setting [2]) was above 10 µM. On the same count and under the same terms, as for “RNPPLVGIW [9-mer drawn by CPL-biased importance sampling]”, the figure is above 10 µM. On the same count and under the same terms, for “RYPPLVPML [9-mer drawn by CPL-biased importance sampling]” the value was above 10 µM. In the assay on 4C6 T cell clone (setting [2]), “SLLPLLGIL [9-mer drawn by CPL-biased importance sampling]” showed an EC50 above 10 µM. Still for that read-out and setting: for “SMMRLLPVW [9-mer drawn by CPL-biased importance sampling]” the value was above 10 µM. On the same count and under the same terms, for “SNMRLMPVV [9-mer drawn by CPL-biased importance sampling]” the value was above 10 µM; for “SNPPLMGLM [9-mer drawn by CPL-biased importance sampling]”, above 10 µM. On the same count and under the same terms, for “SWLRLFNMM [9-mer drawn by CPL-biased importance sampling]” the value was above 10 µM; for “SYPPLVGMV [9-mer drawn by CPL-biased importance sampling]”, above 10 µM.
